Converted amounts (≈) assume the structure as drawn.
Tests used:
[1] = physchem; details: water
[2] = tested on: bleomycin induced pulmonary fibrosis; assay: Bleomycin induced pulmonary fibrosis, 21 days; type: in vivo, mice; details: day 21; pirfenidone 100 mg/kg, IVc-059a 15 mg/kg
Method: A total of 40 male Balb/c mice aged 8-10 weeks were used for the study.
Mice were anesthetized using an IP injection of xylazine and ketamine. Once an appropriate plane of anaesthesia was achieved, animals had 1.0 U/kg bleomycin sulphate instilled via intratracheal route. The total volume of liquid was 50 μL.
Dosing of IV and positive control (pirfenidone) started 24 hours after bleomycin instillation.
Drug solution was formulated immediately prior to dosing. For a dose of 15 mg/kg (enough for 12, 30 g mice) 4.5 mg of compound was weighed out. 75 μl (5%) DMSO added and mixed until drug is in solution. 150 μl (10%) solutol added and vortexed gently, 150 μl (10%) PEG400 added and vortexed gently. 1000 μl PBS (pH7) was added and matrix was measured to ensure pH 7.0 was maintained. Remaining PBS (to a total of 1500 μl) was added. Compound remained in solution. […]
Ashcroft score: Lungs from each animal were FFPE, sectioned and stained with H&E according to an in-house protocol. […] Each lung was scored using the Ashcroft grading system to measure degree of inflammation/fibrosis as per Hubner et al., 2008. […]
An entire lung from each animal was formalin fixed and stored in 70% ethanol. […] Percent area covered by trichrome staining was quantified using Qupath and ImageJ software.

[3] = tested on: Renca tumor cells; assay: Subcutaneous kidney cancer syngenic model (Renca); type: in vivo, BALB/c mice; parameters: concentration or dose not given beside the values
Text: The objective of this study was to evaluate preclinically the in vivo therapeutic efficacy study of compounds according to the present invention for the treatment of subcutaneously murine pancreatic cancer syngenic model (Pan02) in female C57BL/6 mice and kidney cancer syngenic model (Renca) in female BALB/c mice.
The cells in exponential growth phase were harvested and quantitated by cell counter before tumor inoculation.
Tumor Inoculation for Renca model: each mouse was inoculated subcutaneously in the right rear flank region with Renca tumor cells (1×10^6) in 0.1 mL of PBS for tumor development.
Randomization: The randomization was started when the mean tumor size reaches approximately 100 (80-110) mm^3. For both models, 48 mice were enrolled in the study. All animals were randomly allocated to 6 study groups. Randomization were performed based on “Matched distribution” method using the multi-task method (StudyDirector™ software, version 3.1.399.19). The date of randomization was denoted as day 0.
Observation and Data Collection: After tumor cells inoculation, the animals were checked daily for morbidity and mortality. During routine monitoring, the animals were checked for any effects of tumor growth and treatments on behavior such as mobility, food and water consumption, body weight gain/loss (body weights were measured twice per week after randomization), eye/hair matting and any other abnormalities. Mortality and observed clinical signs were recorded for individual animals in detail.
Tumor volumes were measured twice per week after randomization in two dimensions using a caliper, and the volume were expressed in mm3 using the formula: “V=(L×W×W)/2, where V is tumor volume, L is tumor length (the longest tumor dimension) and W is tumor width (the longest tumor dimension perpendicular to L). Tumor weight were measured at the end of study. Dosing as well as tumor and body weight measurements were conducted in a Laminar Flow Cabinet.
Statistical Analysis: To compare tumor volumes of different groups at a pre-specified day, Bartlett's test was firstly used to check the assumption of homogeneity of variance across all groups. When the p-value of Bartlett's test is >0.05, One-way ANOVA were used to test overall equality of means across all groups.
If the p-value of the One-way ANOVA is <0.05, post hoc testing by running Tukey's HSD (honest significant difference) tests for all pairwise comparisons, and Dunnett's tests for comparing each treatment group with the vehicle group were performed. When the p-value of Bartlett's test is <0.05, Kruskal-Wallis test were used to test overall equality of medians among all groups. If the p-value the Kruskal-Wallis test is <0.05, post hoc testing by running Conover's non-parametric test for all pairwise comparisons or for comparing each treatment group with the vehicle group were performed, both with single-step p-value adjustment. All statistical analyses were done in R-a language and environment for statistical computing and graphics (version 3.3.1). All tests are two-sided unless otherwise specified, and p-values of <0.05 are regarded as statistically significant.

| Compound | solubility [1] | Onset of fibrosis in mouse lung (Ashcroft score) [2] | Mean % inhibition of tumor volume Renca model ([3]; Day 0) | Mean % inhibition of tumor volume Renca model ([3]; Day 3) | Mean % inhibition of tumor volume Renca model ([3]; Day 6) | Mean % inhibition of tumor volume Renca model ([3]; Day 9) | Mean % inhibition of tumor volume Renca model ([3]; Day 13) | Mean % inhibition of tumor volume Renca model ([3]; Day 16) |
| --- | --- | --- | --- | --- | --- | --- | --- | --- |
| O=C(O)c1cc(NC(=O)c2cc(O)cc(C(=O)Nc3ccc(O)c(C(=O)O)c3)c2O)ccc1O [IIc-007a, 5-(3-(3-carboxy-4-hydroxyphenylaminocarbonyl)-2,5-dihydroxybenzamido)-2-hydroxy benzoic acid] | 1800 µg/mL (≈ 3.84 mM) |  |  |  |  |  |  |  |
| O=C(O)c1cc(O)cc(CS(=O)(=O)Cc2cc(O)cc(C(=O)O)c2O)c1O [IVc-059a, 3-((2,5-Dihydroxy-3-carboxyphenyl)methylsulfonylmethyl)-2,5-dihydroxybenzoic acid] |  | reduced the onset of fibrosis in mouse lung | 0.05% | −0.90% | 5.02% | 14.83% | 23.07% | 19.42% |

Source: patent US20230150951A1, “2,5- OR 2,6-DISUBSTITUTED HYDROQUINONE DERIVATIVES WITH AT LEAST ONE CARBOXY, SULFO OR AMIDO GROUP USEFUL AS MEDICAMENTS” (OM PHARMA SA, priority 2020, published 2023)
